The values below come from patent US11267815B2, “Class of amino-substituted nitrogen-containing fused ring compounds, preparation method therefor, and use thereof” (SHANGHAI RINGENE BIOPHARMA CO., LTD., priority 2017, dated 2022).

For data set [1], the system named is various tumor cells (HuH-7, SNU-16, KG1, UM-UC-14, RT-112 etc.). Kind of data set: Proliferation inhibitory activity on various tumor cells (SRB or CCK8). Type of data set: cell-based. Particulars: SRB or CCK8 method; read-out: proliferation inhibitory activities on various tumor cells. Background: Formazan colour is commonly taken as a measure of viable cells.

Data set [2] can be described thus: ADME tests: liver microsome metabolic stability and direct inhibition test. Particulars: metabolic stability, direct inhibition test. It counts as in vitro ADME. How it is done: (1) Metabolic stability test: 150 μL system of liver microsome (final concentration 0.5 mg/mL) was used for metabolic stability incubation, the system contained NADPH (final concentration 1 mM), 1 μM test compound and positive control Midazolam or negative control Atenolol, then the reaction was terminated with Tinidazole-containing acetonitrile at 0 min, 5 min, 10 min and 30 min respectively, and the mixtures were vortexed for 10 minutes and centrifuged for 10 minutes at 15000 rmp, 50 μL of the supernatants were added into 96-well plate for injection. The metabolic stability of the compounds was calculated by measuring the relative reduction of the original drug.
(2) Direct inhibition test (DI test): Direct inhibition incubation was carried out with 100 μL system of human liver microsome (final concentration 0.2 mg/mL), the system containing NADPH (final concentration 1 mM), 10 μM compound, positive inhibitor cocktail (Ketoconazole 10 μM, Quinidine 10 μM, Sulfaphenazolum 100 μM, α-Naphthoflavone 10 μM, Tranylcypromine 1000 μM), negative control (BPS containing 0.1% DMSO) and mixed probe substrates (Midazolam 10 μM, Testosterone 100 μM, Dextromethorphan […], Diclofenac 20 μM, Phenacetin 100 μM, Mephenytoin 100 μM) was incubated for 20 minutes and then the reaction was terminated. The relative activity of enzymes was calculated by measuring the relative production of metabolites.
For orientation: Liver microsomes are vesicles of endoplasmic reticulum, rich in cytochrome P450 enzymes.

The target in data set [3] is FGFR1 (Homo sapiens (Human), UniProt P11362). Kind of data set: Inhibitory activity on kinase FGFR1 (Caliper mobility shift). Type of data set: biochemical. The conditions noted are these: read-out: FGFR1 IC50. How it is done:
(§1) (1). Preparation of 1×Kinase buffer; (2) Preparation of the gradient concentrations of the compounds: the concentration of the compounds to be tested started from 10 μM, which was 3-fold diluted to prepare 10 dilutions, and then tested in duplicated wells. The compounds were 100-fold serially diluted into 10 dilutions with different final concentrations in 96-well plates, each of which was further diluted with 1×Kinase buffer to prepare an intermediate dilution having a concentration of 5 times the final concentration; (3) adding 5 μL of each of the prepared compound solution into the compound wells of 384-well plates, and each concentration set single well; adding 5 μL of 5% DMSO into negative control wells and positive control wells respectively; (4) preparing a kinase solution having a concentration of 2.5 times the final concentration with 1×kinase buffer; (5) adding 10 μL of kinase solution at a concentration of 2.5 times the final concentration into the compound wells and the positive control wells respectively; and adding 10 μL of 1×Kinase buffer into the negative control wells; (6) centrifuging at 1000 rpm for 30 seconds, and incubating at room temperature for 10 minutes after shaking and mixing evenly; (7) preparing a mixed solution of ATP and Kinase substrate 22 having a concentration of 2.5 times the final concentration with 1×Kinase Buffer; (8) adding 10 μL of the mixed solution of ATP and substrate at a concentration of 2.5 times the final concentration to initiate the reaction; (9) Centrifuging the 384-well plates at 1000 rpm for 30 seconds, and incubating at 28° C. for corresponding time respectively after shaking and mixing; (10) adding 30 μL of stop detection solution to stop the kinase reaction, centrifuging at 1000 rpm for 30 seconds, and shaking and mixing the mixture evenly; (11) reading the conversion rate by Caliper Ezreader II. The dose-effect curve was fitted by the log (inhibitor) vs. response-variable slope of GraphPad Prism 5 with the log value of concentration as the X axis and the percentage inhibition rate as the Y axis, then the IC50 value of each compound on the enzyme activity was obtained.

Data set [4] relates to Hep3B cells. Kind of data set: Hep3B cell proliferation (CellTiter-Glo, 72 hours). It counts as cell-based. The conditions noted are these: read-out: Hep3B IC50. How it is done:
1. Test method: inoculating Hep3B cells (ATCC) in logarithmic growth phase at an appropriate density in a 96-well culture plate, with 100 μL per well. After overnight culture, different concentrations of compounds were added to stay for 72 hours, and menstruum control group (negative control) was set, and the incubation was performed under the condition of 5% CO2 at 37° C. Adding 10 mM compound stock solution to the cells, after the cells were incubated with the compounds for 72 hours, the effects of the compounds on cell proliferation were determined by CellTiter-Glo (Promega) method. 30 μL CTG reagent was added to each well and the resulting mixtures were placed in a 37° C. incubator for 2-4 hours. Then the plate was read by a full-wavelength microplate enzyme reader Envision at a […].
The inhibition rates (%) of the compounds on tumor cell growth were calculated by the following formula: inhibition rate (%)=(OD negative control well−OD administration well)/OD negative control well×100%. IC50 values were obtained by four parameters regression using Graphpad Prism 5 software.
Background: Cellular ATP, detected with luciferase, serves as a proxy for viable cell number.

Data set [5] relates to EGFR, VEGFR, PDGFR, FGFR, RET, MET, Src, Lyn, Syk, MEK, CDK, RA, ROS. Kind of data set: Inhibitory activities on different kinases (selectivity). Type of data set: biochemical. Particulars: versus different kinases. The protocol: The inhibitory activities of the compounds of the present disclosure on different kinases such as EGFR, VEGFR, PDGFR, FGFR, RET, MET, Src, Lyn, Syk, MEK, CDK, RA, ROS, etc., were also determined.

Data set [6] can be described thus: Pharmacokinetics in rats or mice after intragastric and intravenous administration. The conditions noted are these: iv 3 mg/kg, intragastric 10 mg/kg. Type of data set: in vivo, SD rats or BALB/c mice. How it is done:
(3) LC/MS/MS method was used to measure the drug concentration in plasma at different time points after the embodiment compounds were administered to the rats or mice by intragastric administration and intravenous injection respectively, so as to study the pharmacokinetic behavior of the compounds of the present disclosure in rats or mice and evaluate the pharmacokinetic characteristics thereof. […]

Data set [7] concerns xenograft tumors. In words: Xenograft tumor growth in nude mice. It counts as in vivo. The conditions noted are these: oral, daily for three weeks, lower dose (even less than 20 mg/kg). How it is done: 1. The tumor tissue in vigorous growth period was cut into about 1.5 mm^3, and subcutaneously inoculated into the right armpit of nude mice under sterile condition. The diameter of the subcutaneous transplanted tumors in nude mice was measured with vernier caliper, and the animals were randomly divided into groups when the average volume of the tumor reached about 130 mm^3. The embodiment compounds (prepared to the desired concentration with water for injection containing 1% Tween 80 for later use) were orally administered at a predetermined dose every day for three weeks, while a same amount of menstruum was administered in the menstruum control group. During the whole experiment, the diameter of the xenograft tumor was measured twice a week and the weight of the mice was weighed at the same time. The tumor volume (TV) was calculated by the formula: TV=½×a×b^2, where a and b represent length and width respectively. According to the measured results, the relative tumor volume (RTV) was calculated by the formula: RTV=Vt/V0, where V0 was the tumor volume measured when the mice were divided into cages for administration (i.e., d0) and Vt was the tumor volume at each measurement. […]

Data set [8] has as its target FGFR4 (Homo sapiens (Human), UniProt P22455). Kind of data set: Inhibitory activity on kinase FGFR4 (Caliper mobility shift). Type of data set: biochemical. The conditions noted are these: read-out: FGFR4 IC50. The protocol: as §1

pIC50: −log10 of the molar value. Like-named read-outs stand apart in the source and are kept apart here. A value given as a limit tells only on which side of the number the result lay.

Chain of FGFR4 (P22455 22-802): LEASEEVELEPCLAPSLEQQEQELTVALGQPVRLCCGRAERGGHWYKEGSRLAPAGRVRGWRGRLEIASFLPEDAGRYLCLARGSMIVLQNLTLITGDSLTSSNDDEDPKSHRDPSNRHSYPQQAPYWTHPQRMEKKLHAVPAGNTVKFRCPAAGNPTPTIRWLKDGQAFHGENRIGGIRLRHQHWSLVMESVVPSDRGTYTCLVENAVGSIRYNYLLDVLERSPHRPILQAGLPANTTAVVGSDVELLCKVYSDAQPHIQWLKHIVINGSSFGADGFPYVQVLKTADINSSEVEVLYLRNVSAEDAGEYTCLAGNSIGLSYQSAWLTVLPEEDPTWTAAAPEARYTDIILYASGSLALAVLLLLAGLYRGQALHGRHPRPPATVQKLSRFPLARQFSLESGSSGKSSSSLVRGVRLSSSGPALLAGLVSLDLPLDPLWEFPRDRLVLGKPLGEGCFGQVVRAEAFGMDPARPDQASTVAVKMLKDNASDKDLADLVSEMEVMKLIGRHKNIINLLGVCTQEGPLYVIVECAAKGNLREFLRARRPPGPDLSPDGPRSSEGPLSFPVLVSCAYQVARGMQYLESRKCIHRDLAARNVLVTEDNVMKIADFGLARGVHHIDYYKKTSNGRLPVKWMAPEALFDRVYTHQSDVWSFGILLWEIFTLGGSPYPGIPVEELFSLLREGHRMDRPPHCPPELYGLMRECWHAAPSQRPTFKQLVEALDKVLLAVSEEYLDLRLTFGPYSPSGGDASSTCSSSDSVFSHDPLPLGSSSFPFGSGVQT
Chain of FGFR1 (P11362 22-822): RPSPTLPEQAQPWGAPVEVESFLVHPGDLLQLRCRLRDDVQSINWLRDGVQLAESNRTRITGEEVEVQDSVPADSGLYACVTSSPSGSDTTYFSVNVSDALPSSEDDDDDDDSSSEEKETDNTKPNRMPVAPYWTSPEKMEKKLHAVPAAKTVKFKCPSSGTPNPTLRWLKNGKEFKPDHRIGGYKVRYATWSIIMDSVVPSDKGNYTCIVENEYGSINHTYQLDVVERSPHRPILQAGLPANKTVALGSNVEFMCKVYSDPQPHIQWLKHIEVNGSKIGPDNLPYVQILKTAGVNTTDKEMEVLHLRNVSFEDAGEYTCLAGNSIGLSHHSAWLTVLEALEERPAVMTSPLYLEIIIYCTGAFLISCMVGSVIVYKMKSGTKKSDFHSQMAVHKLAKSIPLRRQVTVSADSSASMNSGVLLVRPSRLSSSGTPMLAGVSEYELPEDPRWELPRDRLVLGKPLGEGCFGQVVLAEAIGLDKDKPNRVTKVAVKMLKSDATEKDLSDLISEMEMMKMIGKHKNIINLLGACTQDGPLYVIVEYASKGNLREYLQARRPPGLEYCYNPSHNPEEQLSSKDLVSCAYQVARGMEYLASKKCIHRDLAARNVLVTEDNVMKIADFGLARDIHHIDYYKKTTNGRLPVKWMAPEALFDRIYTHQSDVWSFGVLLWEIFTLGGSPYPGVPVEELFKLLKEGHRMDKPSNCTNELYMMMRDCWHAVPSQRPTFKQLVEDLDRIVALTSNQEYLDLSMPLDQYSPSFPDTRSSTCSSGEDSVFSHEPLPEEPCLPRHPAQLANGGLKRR

Take `C=CC(=O)Nc1ccc(-c2cn3c(n2)c(-c2c(Cl)c(OC)cc(OC)c2Cl)cc2cnc(NC)nc23)cc1` [Embodiment 17, N-(4-(6-(2,6-dichloro-3,5-phenyldimethoxyphenyl)-2-(methylamine)imidazo[1′,2′:1,6]pyrido[2,3-d]pyrimidin-8-yl)phenyl)acrylamide]: the pIC50 in data set [1] was > 7.00; in data set [3] it was > 7.70; in data set [4], 6.70 to 7.70; in data set [8], < 6.70. Also, the ADME properties entry in data set [2] is reported as “better ADME properties”. Besides, the kinase selectivity entry in data set [5] is reported as “greater than 100 times”. The “absorption and metabolism properties in rats and mice” value in data set [6] was “good absorption and metabolism properties in rats and mice”. Moreover, the anti-tumor rate entry in data set [7] is recorded as “more than 80%”.

For the compound `C=CC(=O)N1CCN(CCCc2cn3c(n2)c(-c2c(F)c(OC)cc(OC)c2F)cc2cnc(NC)nc23)CC1` [Embodiment 1], the pIC50 in data set [3] is > 7.70; in data set [4] (Homo sapiens, Hep3B), > 7.70; in data set [8] it was > 7.70.

For `C=CC(=O)N1CCN(CCCc2cn3c(n2)c(-c2c(Cl)c(OC)cc(OC)c2Cl)cc2cnc(NC)nc23)CC1(C)C` [Embodiment 14], the pIC50 in data set [3] is > 7.70; in data set [4] (Homo sapiens, Hep3B), 6.70 to 7.70; in data set [8], 6.70 to 7.70.

`C=CC(=O)N1CCN(CCCc2cn3c(n2)c(-c2c(F)c(OC)cc(OC)c2F)cc2cnc(NC)cc23)CC1` [Embodiment 2]: the pIC50 in data set [3] is > 7.70; in data set [4] (Homo sapiens, Hep3B), > 7.70; in data set [8], > 7.70.

Regarding `C=CC(=O)N1CCN(CCCc2cn3c(n2)c(-c2c(Cl)c(OC)cc(OC)c2Cl)cc2cnc(NCC(O)CO)nc23)CC1` (centres unmarked) [Embodiment 10], the pIC50 was > 7.70 in data set [3]; 6.70 to 7.70 in data set [4] (Homo sapiens, Hep3B); > 7.70 in data set [8].

Consider `C=CC(=O)N1CCN(CCCc2cn3c(n2)c(-c2c(Cl)c(OC)cc(OC)c2Cl)cc2cnc(NCCN4CCN(C)CC4)nc23)CC1` [Embodiment 7, 1-(4-(3-(6-(2,6-dichloro-3,5-dimethoxyaniline)-2-((2-(4-methylpiperazine-1-yl)ethylethyl)amino)imidazo[1′,2′:1,6]pyrido[2,3-d]pyrimidin-8-yl)propyl)piperazine-1-yl)prop-2-en-1-one], for which the pIC50 in data set [3] is > 7.70; in data set [4] (Homo sapiens, Hep3B), 6.70 to 7.70; in data set [8], > 7.70.
